Test results as given in patent US5997843A, “Radiometal complexes that localise in hypoxic tissue” (priority 1993, dated 1999).
Entries after “also recorded” stand apart in the source; their conditions may differ. Where two headings read alike, the source gives them in different places.

Experiments:
xanthine oxidase [1] = assay: Xanthine oxidase (XOD) with hypoxanthine in PBS reduction test; type: biochemical; conditions: ^99m Tc complex, HPLC
Experimental: b) Xanthine Oxidase (XOD) with Hypoxanthine in Phosphate Buffered Saline (PBS)
Xanthine oxidase (16 mg) was weighed into a P6 vial. the vial was capped, oversealed and purged with nitrogen gas. Nitrogen purged phosphate buffered saline (1 ml) was added to the vial containing the xanthine oxidase.
Hypoxanthine (4.1 mg) was weighed into a P6 vial. The vial was capped, oversealed and purged with nitrogen gas. To the hypoxanthine was added (1 ml) of the xanthine oxidase in PBS.
1 ml of the ligand solution or 1 ml of the ^99m Tc-complex preparation was then added to the reducing mixture, shaken, and aliquots were taken at 20 minute time intervals.

[2] = system: isolated (Langendorff) rat hearts; assay: Isolated perfused heart (Langendorff), hypoxic vs oxic uptake/retention; conditions: for Hypoxic/Oxic Ratio (H/O): ^99m Tc complex (or ^123 I-IAZA), 20 min infusion, 15 min washout; for Normalised Hypoxic Retention: relative to ^3 H-misonidazole activity; for normalised hypoxic retention, times greater than ^3 H misonidazole: isolated buffer perfused rat heart model
Experimental: A 15-minute cold buffer washout period follows. y activity in the heart is monitored using a collimated NaI probe detector positioned over the heart.
Activity in hearts, relative to perfusate activity, is calculated for each nuclide and data evaluated for each compound for activity in hypoxic and oxic hearts (hypoxic:oxic ratio) and also relative to the 3 H-misonidazole activity (normalised retention) using Formula 1. [formula] Results

Biodistribution in rats = type: in vivo, male rats; conditions: i.v.
Experimental: Biodistribution in Rats--Methods
The quantitative biodistribution was studied in male rats at 2 minutes, 1 hour and 4 hours post-injection
Rats under light anaesthesia were injected intravenously with 0.1 ml of test agent. Three rats were sacrificed (anaesthesia followed by exsanguination) at 2, 60 and 240 minutes, post-injection. The percentage of the injected dose in the excreta and organs and tissues was determined by dissection and assay for radioactivity in an automatic gamma counter.

[3] = rat, cited from earlier work
xanthine oxidase [4] = conditions: ^99 Tc complex; cited from earlier work
[5] = 2 min post-injection, ^99m Tc complex
[6] = 240 min post-injection (third printed value)
[7] = second of two values, 60 or 240 min not assignable

SMILES | Xanthine oxidase reduction test result (xanthine oxidase [1]) | Hypoxic/Oxic Ratio (H/O) [2] | Normalised Hypoxic Retention [2] | Bladder/Urine (Biodistribution in rats; 2 min post-injection) | Blood (Biodistribution in rats; 2 min post-injection) | Gut (Biodistribution in rats; 2 min post-injection) | Kidney (Biodistribution in rats; 2 min post-injection) | Liver (Biodistribution in rats; 2 min post-injection) | Muscle (Biodistribution in rats; [5]) | Gut (Biodistribution in rats; 60 min post-injection) | Muscle (Biodistribution in rats; 60 min post-injection) | Muscle (Biodistribution in rats; [6]) | Gut (Biodistribution in rats; 240 min post-injection) | Blood (Biodistribution in rats; [7]) | Kidney (Biodistribution in rats; [7]) | Liver (Biodistribution in rats; [7]) | hypoxia selectivity / hypoxic/oxic ratio / hypoxic retention (in words) [2] | normalised hypoxic retention, times greater than ^3 H misonidazole [2] | also measured
CC(=NO)C(C)(C)NCCCNC(C)(C)C(Cn1ccnc1[N+](=O)[O-])=NO [Compound V, 3,3,9,9-Tetramethyl-1-(2-nitro-1H-imidazo-1-yl)-4,8-diazaundecane-2,10-dione dioxime, reference compound] | positive | 10 | 8.4 | 0.3 percent injected dose | 7.2 percent injected dose | 11.1 percent injected dose | 4.1 percent injected dose | 25.1 percent injected dose | 29.6 percent injected dose | 45.9 percent injected dose | 4.2 percent injected dose | 2.4 percent injected dose | 59.3 percent injected dose | 4.2 percent injected dose | 3.2 percent injected dose | 21.5 percent injected dose |  |  | 
CC(=NO)C(C)(C)NCCCCNC(C)(C)C(C)=NO [Compound I, 4,9-diaza-3,3,10,10-tetramethyldodecan-2,11',-dione dioxime] | positive | 54 | 2.2 | 0.6 percent injected dose | 9.7 percent injected dose | 11.2 percent injected dose | 7.5 percent injected dose | 10.6 percent injected dose | 35.2 percent injected dose | 22.3 percent injected dose | 12.5 percent injected dose | 3.5 percent injected dose | 24.4 percent injected dose | 2.4 percent injected dose | 5.6 percent injected dose | 9.1 percent injected dose | significantly greater than seen for other ^99m Tc test agents and ^123 I-IAZA; also recorded: greater than that for ^99m Tc-PnAO; also recorded: at least equivalent to ^123 I-IAZA; also recorded: significantly greater hypoxic cell selectivity than the corresponding nitroimidazole conjugate | at least 2 times | brain uptake ([3]; 30 sec pi, ^99m Tc complex): 0.12 % injected dose
CC(=NO)C(C)(C)NCCCNC(C)(C)C(C)=NO [Compound X, reference compound] | positive | 5.1 | 0.50 | 0.1 percent injected dose | 5.0 percent injected dose | 11.7 percent injected dose | 1.8 percent injected dose | 27.9 percent injected dose | 34.9 percent injected dose | 51.5 percent injected dose | 7.9 percent injected dose | 2.6 percent injected dose | 53.4 percent injected dose | 6.8 percent injected dose | 2.1 percent injected dose | 13.1 percent injected dose |  |  | Xanthine oxidase reduction test result (xanthine oxidase [1]; listed as PnAO): reduced by xanthine oxidase; reduction by xanthine oxidase (xanthine oxidase [4]): not reduced; brain uptake ([3]; in vivo, 0.5 min): 1.3 % injected dose
CC(=NO)C(C)(C)NCCCCCNC(C)(C)C(Cn1ccnc1[N+](=O)[O-])=NO [Compound IV, 3,3,11,11-tetramethyl-1-(2-nitro-1H-imidazo-1-yl)-4,10-diazatridecan-2,12-dione dioxime] | positive | 2.4 | 0.49 | 0.4 percent injected dose | 10.6 percent injected dose | 13.7 percent injected dose | 12.1 percent injected dose | 15.6 percent injected dose | 24.3 percent injected dose | 50.9 percent injected dose | 8.2 percent injected dose | 2.0 percent injected dose | 60.0 percent injected dose | 1.0 percent injected dose | 2.7 percent injected dose | 2.5 percent injected dose | very little hypoxia selectivity |  | 
CC(=NO)C(C)(C)NCCCCNC(C)(C)C(Cn1ccnc1[N+](=O)[O-])=NO [Compound II] | positive | 28 | 5.1 | 1.0 percent injected dose | 8.4 percent injected dose | 13.4 percent injected dose | 13.1 percent injected dose | 15.5 percent injected dose | 26.1 percent injected dose | 40.0 percent injected dose | 6.6 percent injected dose | 3.1 percent injected dose | 49.9 percent injected dose | 1.3 percent injected dose | 1.4 percent injected dose | 11.4 percent injected dose | significantly greater than seen for other ^99m Tc test agents and ^123 I-IAZA; also recorded: greater than that for ^99m Tc-PnAO; also recorded: at least equivalent to ^123 I-IAZA | at least 2 times | 
